Test results reported in ChEMBL document CHEMBL5113372, “Paradigm shift of "classical" HDAC inhibitors to "hybrid" HDAC inhibitors in therapeutic interventions” (Eur J Med Chem, 2021).

Tests used:
[1] = test system: DU-145; assay: Cytotoxicity against human DU-145 cells assessed as cell growth inhibition; format: functional, cell-based
[2] = target: T1, Histone deacetylase 8 (Homo sapiens, UniProt Q9BY41); assay: Inhibition of HDAC8 (unknown origin)
T1 sequence (Q9BY41 whole entry): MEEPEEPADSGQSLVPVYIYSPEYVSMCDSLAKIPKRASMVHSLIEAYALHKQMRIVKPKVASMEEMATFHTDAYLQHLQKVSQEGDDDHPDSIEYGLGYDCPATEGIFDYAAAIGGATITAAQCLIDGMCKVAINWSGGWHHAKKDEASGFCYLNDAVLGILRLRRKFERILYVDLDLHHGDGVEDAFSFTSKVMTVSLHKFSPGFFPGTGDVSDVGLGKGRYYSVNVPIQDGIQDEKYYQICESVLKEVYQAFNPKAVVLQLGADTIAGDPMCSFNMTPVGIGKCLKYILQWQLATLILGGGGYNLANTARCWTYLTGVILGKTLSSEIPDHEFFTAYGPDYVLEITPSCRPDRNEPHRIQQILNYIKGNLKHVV

[3] = target: T2, Histone deacetylase 1 (Homo sapiens, UniProt Q13547); assay: Inhibition of HDAC1 (unknown origin)
T2 sequence (Q13547 whole entry): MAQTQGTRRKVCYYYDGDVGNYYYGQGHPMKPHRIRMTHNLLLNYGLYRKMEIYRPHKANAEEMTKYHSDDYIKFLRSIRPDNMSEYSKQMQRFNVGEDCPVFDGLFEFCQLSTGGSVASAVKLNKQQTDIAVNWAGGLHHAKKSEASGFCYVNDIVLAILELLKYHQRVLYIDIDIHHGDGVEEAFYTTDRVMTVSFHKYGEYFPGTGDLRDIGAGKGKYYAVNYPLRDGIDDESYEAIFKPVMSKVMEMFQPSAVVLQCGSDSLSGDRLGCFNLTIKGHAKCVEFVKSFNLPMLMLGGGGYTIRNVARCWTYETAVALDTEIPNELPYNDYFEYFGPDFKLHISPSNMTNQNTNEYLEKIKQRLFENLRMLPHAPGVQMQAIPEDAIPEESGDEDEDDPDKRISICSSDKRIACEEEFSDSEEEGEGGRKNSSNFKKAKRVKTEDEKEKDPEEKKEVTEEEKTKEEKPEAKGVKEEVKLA

[4] = target: T3, Protein deacetylase HDAC6 (Homo sapiens, UniProt Q9UBN7); assay: Inhibition of HDAC6 (unknown origin)
T3 sequence (Q9UBN7 whole entry): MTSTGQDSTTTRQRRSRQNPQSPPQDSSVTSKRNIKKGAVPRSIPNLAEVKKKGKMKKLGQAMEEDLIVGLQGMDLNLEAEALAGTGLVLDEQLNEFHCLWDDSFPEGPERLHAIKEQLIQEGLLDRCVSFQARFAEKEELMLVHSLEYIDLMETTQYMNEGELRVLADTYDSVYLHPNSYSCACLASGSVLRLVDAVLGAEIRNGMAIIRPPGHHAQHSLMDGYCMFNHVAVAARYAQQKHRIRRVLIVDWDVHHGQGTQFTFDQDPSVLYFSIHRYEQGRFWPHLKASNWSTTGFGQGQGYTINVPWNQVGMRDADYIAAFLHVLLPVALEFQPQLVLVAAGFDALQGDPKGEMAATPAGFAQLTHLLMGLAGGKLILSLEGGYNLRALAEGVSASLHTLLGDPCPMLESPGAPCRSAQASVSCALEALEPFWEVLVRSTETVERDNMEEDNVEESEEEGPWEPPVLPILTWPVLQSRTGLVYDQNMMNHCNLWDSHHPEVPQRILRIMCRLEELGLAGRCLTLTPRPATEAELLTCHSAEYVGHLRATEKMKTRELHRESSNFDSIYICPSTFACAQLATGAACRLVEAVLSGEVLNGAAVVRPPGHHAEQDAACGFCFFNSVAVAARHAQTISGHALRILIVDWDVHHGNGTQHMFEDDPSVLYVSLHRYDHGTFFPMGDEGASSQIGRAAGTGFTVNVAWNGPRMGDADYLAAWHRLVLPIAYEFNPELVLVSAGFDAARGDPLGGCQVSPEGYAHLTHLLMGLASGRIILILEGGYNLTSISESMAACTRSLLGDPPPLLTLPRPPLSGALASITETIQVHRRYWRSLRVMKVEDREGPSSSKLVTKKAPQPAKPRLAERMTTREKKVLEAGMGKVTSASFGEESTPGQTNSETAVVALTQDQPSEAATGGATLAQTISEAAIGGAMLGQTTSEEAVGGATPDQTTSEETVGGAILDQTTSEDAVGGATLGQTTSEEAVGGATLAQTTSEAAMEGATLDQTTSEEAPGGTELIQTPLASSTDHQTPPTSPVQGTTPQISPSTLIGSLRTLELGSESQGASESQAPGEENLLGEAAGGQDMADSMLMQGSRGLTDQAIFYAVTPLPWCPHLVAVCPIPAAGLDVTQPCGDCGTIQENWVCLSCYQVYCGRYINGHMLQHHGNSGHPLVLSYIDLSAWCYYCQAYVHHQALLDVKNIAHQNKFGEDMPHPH

[5] = target: 72 kDa type IV collagenase (Homo sapiens, UniProt P08253); assay: Inhibition of MMP2 (unknown origin) using chromogenic substrate incubated for 1 hr followed by substrate addition measured for 30 mins by microplate photometry
Sequence of 72 kDa type IV collagenase (P08253 whole entry): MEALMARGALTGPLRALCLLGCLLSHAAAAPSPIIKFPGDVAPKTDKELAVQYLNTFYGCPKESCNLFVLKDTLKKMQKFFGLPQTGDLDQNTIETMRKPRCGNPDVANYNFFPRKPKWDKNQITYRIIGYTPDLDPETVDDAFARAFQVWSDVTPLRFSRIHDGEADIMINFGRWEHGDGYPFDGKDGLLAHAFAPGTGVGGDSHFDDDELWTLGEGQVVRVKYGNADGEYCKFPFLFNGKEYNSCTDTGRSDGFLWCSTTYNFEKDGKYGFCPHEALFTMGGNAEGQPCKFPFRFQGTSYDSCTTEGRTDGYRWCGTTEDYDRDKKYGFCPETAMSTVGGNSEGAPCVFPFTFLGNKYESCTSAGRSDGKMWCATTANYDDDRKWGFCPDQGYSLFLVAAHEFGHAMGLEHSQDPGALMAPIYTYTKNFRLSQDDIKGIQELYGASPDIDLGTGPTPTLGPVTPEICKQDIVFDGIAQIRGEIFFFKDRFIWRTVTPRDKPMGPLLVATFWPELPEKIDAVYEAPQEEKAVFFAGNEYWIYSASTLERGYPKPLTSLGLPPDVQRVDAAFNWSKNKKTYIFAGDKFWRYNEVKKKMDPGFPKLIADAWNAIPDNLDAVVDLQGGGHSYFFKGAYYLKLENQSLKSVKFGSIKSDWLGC

[6] = target: T1, Histone deacetylase 8; assay: Inhibition of recombinant human HDAC8 using Fluor-de-lys substrate by fluorescence based microplate reader analysis
[7] = target: Protein kinase C alpha type (Mus musculus, UniProt P20444); assay: Binding affinity to mouse PKC-alpha assessed as inhibition constant
[8] = target: T4, Histone deacetylase 2 (Homo sapiens, UniProt Q92769); assay: Inhibition of HDAC2 (unknown origin)
T4 sequence (Q92769 whole entry): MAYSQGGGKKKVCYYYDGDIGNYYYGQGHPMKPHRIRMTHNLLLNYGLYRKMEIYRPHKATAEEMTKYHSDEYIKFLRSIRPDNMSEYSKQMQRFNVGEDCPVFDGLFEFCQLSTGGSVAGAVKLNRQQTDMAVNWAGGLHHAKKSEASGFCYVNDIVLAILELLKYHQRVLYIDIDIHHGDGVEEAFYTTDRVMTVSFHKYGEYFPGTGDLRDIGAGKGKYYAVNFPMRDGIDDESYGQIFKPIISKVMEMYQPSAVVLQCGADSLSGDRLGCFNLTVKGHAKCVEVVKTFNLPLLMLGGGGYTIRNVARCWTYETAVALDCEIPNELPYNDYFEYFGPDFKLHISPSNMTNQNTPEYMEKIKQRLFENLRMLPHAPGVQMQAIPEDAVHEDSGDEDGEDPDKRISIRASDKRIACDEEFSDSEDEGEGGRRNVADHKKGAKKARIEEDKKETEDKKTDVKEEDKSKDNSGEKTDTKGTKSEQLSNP

[9] = Inhibition of PDE5 (unknown origin); set-up: species or system Homo sapiens
[10] = target: High affinity cGMP-specific 3',5'-cyclic phosphodiesterase 9A (Homo sapiens, UniProt O76083); assay: Inhibition of PDE9 (unknown origin)
Sequence of High affinity cGMP-specific 3',5'-cyclic phosphodiesterase 9A (O76083 whole entry): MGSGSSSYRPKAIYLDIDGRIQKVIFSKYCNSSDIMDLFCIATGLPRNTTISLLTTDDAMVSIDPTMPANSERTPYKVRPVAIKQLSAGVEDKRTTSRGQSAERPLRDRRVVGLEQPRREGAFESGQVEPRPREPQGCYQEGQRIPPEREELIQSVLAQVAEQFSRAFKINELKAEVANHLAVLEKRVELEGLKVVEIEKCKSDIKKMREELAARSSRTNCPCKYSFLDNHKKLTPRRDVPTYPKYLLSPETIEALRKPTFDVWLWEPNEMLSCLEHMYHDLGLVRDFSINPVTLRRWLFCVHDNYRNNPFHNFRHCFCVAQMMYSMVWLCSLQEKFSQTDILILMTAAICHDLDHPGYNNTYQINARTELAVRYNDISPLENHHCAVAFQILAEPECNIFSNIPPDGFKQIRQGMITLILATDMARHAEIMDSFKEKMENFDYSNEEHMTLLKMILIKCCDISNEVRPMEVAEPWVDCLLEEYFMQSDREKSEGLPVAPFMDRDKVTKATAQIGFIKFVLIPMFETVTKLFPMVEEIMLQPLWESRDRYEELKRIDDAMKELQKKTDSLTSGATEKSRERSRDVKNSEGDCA

[11] = test system: K562; assay: Antiproliferative activity against human K562 cells assessed as cell growth inhibition incubated for 48 hrs by MTT assay; format: functional, cell-based; conditions: K562, 48 h
[12] = test system: DU-145; assay: Antiproliferative activity against human DU-145 cells assessed as cell growth inhibition incubated for 48 hrs by MTT assay; format: functional, cell-based; conditions: DU-145, 48 h
[13] = target: T2, Histone deacetylase 1; assay: Inhibition of full-length recombinant human HDAC1 expressed in baculovirus infected Hi-5 insect cells using AcLys-Tyr-Lys(e-acetyl)-AMC as substrate incubated for 24 hrs by enzymatic assay
[14] = test system: HepG2; assay: Antiproliferative activity against human HepG2 cells assessed as cell growth inhibition incubated for 48 hrs by MTT assay; format: functional, cell-based; conditions: HepG2, 48 h
[15] = target: Phosphatidylinositol 4,5-bisphosphate 3-kinase catalytic subunit alpha isoform (Homo sapiens, UniProt P42336); assay: Inhibition of PI3K-alpha (unknown origin)
Sequence of Phosphatidylinositol 4,5-bisphosphate 3-kinase catalytic subunit alpha isoform (P42336 whole entry, canonical isoform): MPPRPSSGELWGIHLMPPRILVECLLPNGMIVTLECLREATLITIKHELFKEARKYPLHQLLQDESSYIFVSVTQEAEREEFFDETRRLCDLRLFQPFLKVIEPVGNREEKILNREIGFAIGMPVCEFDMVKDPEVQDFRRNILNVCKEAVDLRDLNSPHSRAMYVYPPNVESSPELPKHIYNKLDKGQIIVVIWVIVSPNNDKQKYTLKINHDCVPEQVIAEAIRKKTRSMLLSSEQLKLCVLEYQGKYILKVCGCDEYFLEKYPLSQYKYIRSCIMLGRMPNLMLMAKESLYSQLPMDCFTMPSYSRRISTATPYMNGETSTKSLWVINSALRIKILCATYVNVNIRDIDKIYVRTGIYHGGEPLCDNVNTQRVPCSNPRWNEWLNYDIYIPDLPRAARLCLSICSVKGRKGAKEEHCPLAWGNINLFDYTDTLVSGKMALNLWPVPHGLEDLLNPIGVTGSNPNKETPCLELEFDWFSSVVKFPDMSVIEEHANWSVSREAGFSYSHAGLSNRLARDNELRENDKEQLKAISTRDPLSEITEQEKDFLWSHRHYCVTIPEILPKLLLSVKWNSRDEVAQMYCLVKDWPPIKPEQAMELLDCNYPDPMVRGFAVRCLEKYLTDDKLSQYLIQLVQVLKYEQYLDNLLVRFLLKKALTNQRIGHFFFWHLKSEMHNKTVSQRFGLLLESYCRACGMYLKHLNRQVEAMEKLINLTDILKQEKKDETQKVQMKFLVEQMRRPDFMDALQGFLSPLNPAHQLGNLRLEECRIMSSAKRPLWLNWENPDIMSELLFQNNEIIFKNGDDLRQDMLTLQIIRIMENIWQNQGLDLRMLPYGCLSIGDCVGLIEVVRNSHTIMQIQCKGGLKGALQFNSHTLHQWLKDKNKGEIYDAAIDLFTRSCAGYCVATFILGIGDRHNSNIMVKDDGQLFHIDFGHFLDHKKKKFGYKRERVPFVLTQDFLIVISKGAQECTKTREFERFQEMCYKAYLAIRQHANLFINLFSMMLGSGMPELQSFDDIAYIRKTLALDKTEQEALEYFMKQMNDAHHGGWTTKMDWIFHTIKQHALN

[16] = target: T3, Protein deacetylase HDAC6; assay: Inhibition of His-tagged recombinant human HDAC6 expressed in baculovirus infected insect cells using Boc-Lys(Ac)-AMC as substrate preincubated for 5 mins followed by substrate addition measured after 30 mins by fluorescence based assay
[17] = test system: PC-3; assay: Inhibition of colony formation in human PC-3 cells incubated for 10 days by crystal violet method; format: functional, cell-based; conditions: PC-3, 240 h
[18] = test system: DU-145; assay: Inhibition of colony formation in human DU-145 cells incubated for 10 days by crystal violet method; format: functional, cell-based; conditions: DU-145, 240 h
[19] = target: T2, Histone deacetylase 1; assay: Inhibition of His-tagged recombinant human HDAC1 (482 residues) expressed in baculovirus infected insect cells using FLUOR DE LYS-SIRT1 as substrate preincubated for 5 mins followed by substrate addition measured after 30 mins by fluorescence based assay
[20] = target: Histone deacetylase; assay: Inhibition of pan-HDAC (unknown origin); format: protein assay, Homo sapiens
[21] = test system: DU-145; assay: Anti-proliferative activity against human DU-145 cells assessed as cell growth inhibition measured after 72 hrs by SRB assay; format: functional, cell-based; conditions: DU-145, 72 h
[22] = test system: HCT-116; assay: Cytotoxicity against human HCT-116 cells assessed as inhibition of cell proliferation incubated for 72 hrs by MTT assay; format: functional, cell-based; conditions: HCT-116, 72 h
[23] = target: T2, Histone deacetylase 1; assay: Inhibition of recombinant human HDAC1 expressed in baculovirus infected Hi-5 insect cells using Ac-Lys-Tyr-Lys (epsilon-acetyl)-AMC as substrate incubated for 3 to 24 hrs by fluorescence based plate reader analysis
[24] = target: Histone deacetylase 3 (Homo sapiens, UniProt O15379); assay: Inhibition of recombinant human HDAC3 expressed in baculovirus infected Hi-5 insect cells using Ac-Lys-Tyr-Lys (epsilon-acetyl)-AMC as substrate incubated for 3 to 24 hrs by fluorescence based plate reader analysis
Sequence of Histone deacetylase 3 (O15379 whole entry): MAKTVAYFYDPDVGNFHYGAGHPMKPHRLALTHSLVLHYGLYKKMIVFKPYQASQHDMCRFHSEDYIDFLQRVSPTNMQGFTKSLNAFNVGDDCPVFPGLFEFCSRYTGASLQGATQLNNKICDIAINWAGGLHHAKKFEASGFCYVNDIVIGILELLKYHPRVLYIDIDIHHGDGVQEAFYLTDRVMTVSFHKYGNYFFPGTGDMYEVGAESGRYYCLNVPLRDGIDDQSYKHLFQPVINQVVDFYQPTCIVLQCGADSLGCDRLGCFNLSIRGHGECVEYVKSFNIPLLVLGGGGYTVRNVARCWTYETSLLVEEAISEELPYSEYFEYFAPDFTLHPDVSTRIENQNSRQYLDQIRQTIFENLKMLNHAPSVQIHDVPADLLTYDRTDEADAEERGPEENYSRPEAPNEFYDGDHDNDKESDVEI

[25] = target: T4, Histone deacetylase 2; assay: Inhibition of recombinant human HDAC2 expressed in baculovirus infected Hi-5 insect cells using Ac-Lys-Tyr-Lys (epsilon-acetyl)-AMC as substrate incubated for 3 to 24 hrs by fluorescence based plate reader analysis
[26] = test system: A549; assay: Cytotoxicity against human A549 cells assessed as inhibition of cell proliferation incubated for 72 hrs by MTT assay; format: functional, cell-based; conditions: A549, 72 h

COc1cccc2c1C(=O)c1c(O)c3c(c(O)c1C2=O)C[C@@](O)(C(C)=O)C[C@@H]3O[C@H]1C[C@H](N)[C@H](O)[C@H](C)O1 [DAUNORUBICIN]
IC50 [1]: 130 nM
IC50 [2]: 220 nM
IC50 [3]: 47 nM
IC50 [4]: 20 nM

COc1ccc(CC(=O)N[C@@H](CCC(=O)O)C(=O)NCc2ccccc2)cc1
IC50 [5]: 83700 nM
IC50 [6]: 3800 nM

CC(=O)SCCCCCCCOc1ccc2c(c1)N(C)[C@H](C(C)C)C(=O)N[C@@H](CO)C2
Ki [7]: 4.5 nM

C[C@H]1CN(Cc2ccc(C(=O)NO)cc2)C[C@@H]1c1nc2c(cnn2C2CCCC2)c(=O)[nH]1
IC50 [8]: 3530 nM
IC50 [9]: > 10000 nM
IC50 [3]: 593 nM
IC50 [10]: 107 nM
IC50 [4]: 40 nM

C[C@@H](c1nc2c(cnn2C2CCCC2)c(=O)[nH]1)N1CC(Cc2ccc(C(=O)Nc3ccccc3N)cc2)C1
IC50 [8]: 545 nM
IC50 [9]: > 10000 nM
IC50 [3]: 99 nM
IC50 [10]: 57 nM
IC50 [4]: > 10000 nM

CCN1CCN(c2cc(Nc3ncc(C(=O)Nc4ccc(F)cc4N)s3)ncn2)CC1
IC50 [11]: 2260 nM
IC50 [12]: 600 nM
IC50 [13]: 810 nM
IC50 [14]: 10400 nM

O=C(NO)c1ccc(/C=N/NC(=O)c2cc(N3CCOCC3)nc(-c3cccc(O)c3)n2)cc1
IC50 [15]: 46.3 nM
IC50 [4]: 15.3 nM

O=C(CCCCCNC(=O)c1cccc2cc3ccccc3nc12)NO
IC50 [16]: 2.2 nM
IC50 [17]: 310 nM
IC50 [18]: 160 nM
IC50 [19]: 16.6 nM

CC[C@@]1(O)C(=O)OCc2c1cc1n(c2=O)Cc2cc3ccccc3nc2-1 [CAMPTOTHECIN]
IC50 [20]: 50 nM
IC50 [21]: 70 nM

CCN1CCN(c2cc(Nc3ncc(C(=O)Nc4ccccc4N)s3)ncn2)CC1
IC50 [11]: 2560 nM
IC50 [12]: 5790 nM
IC50 [13]: 150 nM
IC50 [14]: 16500 nM

COc1cc([C@@H]2c3cc4c(cc3C[C@H]3COC(=O)[C@@H]32)OCO4)cc(OC)c1OC(=O)CC(=O)NCc1ccc(C(=O)Nc2ccccc2N)cc1
IC50 [22]: 37 nM
IC50 [23]: 11100 nM
IC50 [24]: 1000 nM
IC50 [25]: 1730 nM
IC50 [26]: 36 nM
